Assay results taken from patent US7754692B2, “Arginyl-glutamine dipeptide for treatment of pathological vascular proliferation” (University of Florida Research Foundation, Inc., priority 2003, dated 2010).
Peptide text beside a SMILES is read from it.

What was measured:
retinal cell culture = test: Retinal cell culture model, transepithelial resistance (TER); type: cell-based
[1] = system: pre-retinal neovascularization; test: Neonatal mouse hyperoxia model of retinopathy of prematurity, counting pre-retinal neovascularization on stained sections; type: in vivo, mice
Protocol: Neonatal mice were exposed to a period of hyperoxia to induce retinal angiogenesis that mimics retinopathy of prematurity. An Arginyl-glutamine dipeptide was administered intraperitoneally twice daily during the period when neovascularization occurs in this model, days 12 through 17.
On day 17 the animals are sacrificed and degree of angiogenesis was quantified by counting pre-retinal neovascularization on stained sections from treated and untreated animals.

[2] = system: vascular endothelial growth factor (VEGF); test: Retinal cell culture model, vascular endothelial growth factor (VEGF); type: cell-based

N=C(N)NCCC[C@H](N)C(=O)N[C@@H](CCC(N)=O)C(=O)O [argininyl-glutamine, arginyl-glutamine] (H-Arg-Gln-OH)
transepithelial resistance (TER) (retinal cell culture): increased
reduction in preretinal neovascularization ([1]; neonatal mice after hyperoxia, intraperitoneally twice daily days 12 through 17, read on day 17, combined data from two experiments (FIG. 1)): 80%
nuclei (associated with retinopathy) compared to the vehicle ([1]; repeat experiment with different doses of the dipeptide after oxygen stress challenge, FIG. 2): clear decrease
vascular endothelial growth factor (VEGF) [2]: decreased
